The source of these data is US20260183306A1, “Methods for Treating Respiratory Diseases Characterized by Mucus Hypersecretion” (The Board of Trustees of the Leland Stanford Junior …, priority 2022, published 2026).

In the series the test system is primary human nasal epithelial cells (HNECs). Description: Multiciliated cell (MCC) formation in HNEC air-liquid interface (ALI) cultures. The class given is cell-based. As to conditions: for effect on Notch signaling and differentiation towards MCCs: administered in the nanomolar range to human nasal epithelial cells; for toxicity / disruption of epithelial structure at high concentration: micromolar doses (10 μM for LY450139); for multiciliated cell formation at the low concentration: low dose (based on IC50 for Notch inhibition); for multiciliated cell formation at the low concentration / multiciliated cell formation, treatment during proliferation only: labeled ALI+21d; for multiciliated cell formation by apical versus basal application: ALI+0 to +21d from either the apical or basal surface; for number of multiciliated cells, apical only treatment of submerged cultures: vs untreated submerged cells; for multiciliated cell numbers, treatment during differentiation: differentiation only (ALI+0 to +21d) and continuous (preALI+ALI) treatments; for multiciliated cell formation in mature cultures: mature (ALI+30d) cultures treated one (ALI+30 to +37d) or two weeks (ALI+30 to +44d); for multiciliated cell formation, treatment during proliferation only: pre-ALI only (ALI-5 to -1d); for ratio MCC number/total luminal cells: labeled at ALI+21 d, vs untreated, p<0.01 by ANOVA. Here is the method: Air-Liquid Interface (ALI) cultures were prepared as described in Vladar E K, Nayak J V, Milla C E, Axelrod J D. Airway epithelial homeostasis and planar cell polarity signaling depend on multiciliated cell differentiation. JCI Insight. 2016; 1(13); e88027. Human nasal epithelial cells (HNECs) were generated from human sinonasal epithelial brushings or from tissue obtained from patients undergoing endoscopic sinus surgery at Stanford Hospital and cultured as described in Vladar et al.
Cultures were treated with varying doses of semagacestat. DAFT (Abcam) was used ([…]) as a positive cone ml for GSI activity. Cultures were labeled at ALI+21 d with anti-acetylated α-tubulin (green) and ECAD (red) antibodies to mark cilia and epithelial junctions. […] The ratio was defined as MCC number/total luminal cells. Counting was done on one representative image from 5 culture replicates from a single donor.
Primary human airway epithelial cells were treated with DAPT and LY45139: i) during proliferation only (ALI-5 to -Id), ii) during differentiation only (ALI+0 to +21d) or iii) continuously during the entire culture duration, followed by labeling at ALI+21d with anti-acetylated α-Tubulin (green) and ECAD (red) antibodies.
Mature (ALI+30d) primary human airway epithelial cells were treated with DAFT and semagacestat for one (ALI+30 to +37d) or two weeks (ALI+30 to +44d), then labeled with anti-acetylated α-Tubulin (green) and ECAD (red) antibodies.
Primary human airway epithelial cells were treated with DAFT and LY45139 during differentiation only (ALI+0 to +21d) from either the apical or basal surface, then labeled at ALI+21d with anti-acetylated α-Tubulin (green) and ECAD (red) antibodies. […] Apical treatment eliminates the air-liquid interface, which results in the poor epithelial structure and multiciliated cell differentiation in the untreated cultures, which is partially rescued by GSI treatment.
While this effect may be beneficial as a therapeutic, DAPT is not suitable for human use. It was sought to identify GSIs for potential therapeutic application among small molecules previously used in clinical trials that were developed to have acceptable drug-like properties. […] Healthy human nasal epithelial cell (HNEC) primary cultures were grown at air-liquid interface (ALI) in homemade culture medium to support the consistent differentiation of multiciliated cells as approximately 45-55% of the luminal cells, similar to the in vivo airways (24) (FIG. 35A, 40A). The use of homemade culture medium is important, as cultures grown in commercially available Pneumacult medium often contain 85-95% multiciliated cells at the luminal surface (FIG. S4A). HNECs were treated with a low and high dose (based on IC50 for Notch inhibition, Selleckchem) of each compound during the entire 21 days of ALI differentiation (ALI+0 to 21d). The fraction of mature multiciliated cells was quantitated using wholemount ac. α-Tubulin antibody (marks ciliary axonemes) labeling. […] DMSO control treatment had no effect on multiciliated cell number (FIG. 40A).
HNEC primary culture comprises an initial proliferative phase when basal stem cells establish the epithelial layer under submerged culture conditions (preALI), followed by differentiation induced, in part, by lifting to ALI (30). Thus, HNECs can be used to test GSI response in both regenerative and homeostatic settings. Notch signaling between luminal cells controls epithelial cell fate, but it is also active in basal cells and regulates their differentiation and survival (14,18,31). Thus, it was asked if the GSIs LY450139 or DAFT during the proliferative preALI phase only or during the entire culture duration (proliferative+differentiation; preALI+ALI) can induce multiciliated cell formation and if GSI treatment during stem cell proliferation has detrimental effects. PreALI, GSIs was added to both the apical and basal media, and during ALI, cultures were only treated basally. […]

[1] abbreviates: ALI+0 to +21d, listed as LY45139.
[2] abbreviates: ALI+0 to +21d, listed as LY450139.
Setting [3] is: treated during differentiation ALI+0 to +21d.

Molecules are shown by their SMILES. Entries after “also recorded” stand apart in the source; their conditions may differ.

As to `O=C(O)CC[C@H]1CC[C@@](c2cc(F)ccc2F)(S(=O)(=O)c2ccc(Cl)cc2)CC1` [MK-0752], the “effect on Notch signaling and differentiation towards MCCs” value is “effective in blocking Notch signaling, driving differentiation towards MCCs”. Moreover, for the setting “ALI+0 to +21d”, the “toxicity / disruption of epithelial structure at high concentration” value (shortened to “toxicity / disruption”) was “disrupted epithelial structure” and the “multiciliated cell formation at the low concentration” value was “induced multiciliated cell formation; also recorded: able to induce the formation of extra multiciliated cells”.
Turning to `CC(C)[C@H](O)C(=O)N[C@@H](C)C(=O)N[C@@H]1C(=O)N(C)CCc2ccccc21` [semagacestat, (2S)-2-hydroxy-3-methyl-N-[(1 S)-1-methyl-2-oxo-2-[[(1 S)-2,3,4,5-tetrahydro-3-methyl-2-oxo-1H-3-benzazepin-1-yl]amino]ethyl]-butamide], the “effect on Notch signaling and differentiation towards MCCs” value was “effective in blocking Notch signaling, driving differentiation towards MCCs”; the “number of multiciliated cells, apical only treatment of submerged cultures” value is “approximately double the number of multiciliated cells”; the “multiciliated cell formation in mature cultures” value is reported as “induces the formation of additional multiciliated cells in mature cultures”. For the same molecule, the “proportion of multiciliated cells” value (10 μM, ALI+0 to +21d) was “significant decrease”. In addition, the “proportion of multiciliated cells” value (15.625 to 500 nM, ALI+0 to +21d) is recorded as “significant increase”. For the same molecule, where the note is “listed as LY45139”, the “multiciliated cell formation by apical versus basal application” value is “induces ciliated cell formation via both apical and basal application”; the “multiciliated cell numbers, treatment during differentiation” value is given as “increased MCC cell numbers”; the “multiciliated cell formation, treatment during proliferation only” value is listed as “had no effect on differentiation”. Also, for the setting “listed as LY450139”, the “multiciliated cell formation by apical versus basal application” value is “just as efficacious as basal treatment; also recorded: induces multiciliated cell formation via both apical and basal application”; the “multiciliated cell numbers, treatment during differentiation” value is recorded as “significant increase in the proportion of multiciliated cells; also recorded: increased multiciliated cell numbers”; the “multiciliated cell formation in mature cultures” value is “robust induction of multiciliated cell formation; also recorded: able to drive multiciliated cell formation in differentiating as well as mature, homeostatic airway epithelial cultures; also recorded: induces the formation of additional multiciliated cells in mature cultures”; the “multiciliated cell formation, treatment during proliferation only” value is given as “not sufficient to induce extra multiciliated cell formation; also recorded: no observable effect on subsequent differentiation; also recorded: no detrimental effect on multiciliated cells or overall epithelial structure”. The “toxicity / disruption” value (ALI+0 to +21d) is reported as “Toxicity is observed at micromolar doses”. Moreover, under setting [1], the “toxicity / disruption” value is reported as “disrupted epithelial structure” and the “multiciliated cell formation at the low concentration” value was “induced multiciliated cell formation”. For the same molecule, under setting [2], the “toxicity / disruption” value is recorded as “disrupted the epithelial junctions; also recorded: disrupted epithelial structure” and the “multiciliated cell formation at the low concentration” value was “able to induce the formation of extra multiciliated cells; also recorded: induced multiciliated cell formation”. For the same molecule, the “dose dependence of multiciliated cell numbers” value (lower (nM) concentrations, ALI+0 to +21d, listed as LY450139) is reported as “increases the proportion of multiciliated cells in a dose dependent manner; also recorded: dose dependent increase in multiciliated cell numbers”. The “ratio MCC number/total luminal cells” value (semagacestat 500 nM to 31.25 nM) is “significant increases”. Further, under setting [3], the “concentration at which the percentage of MCCs reaches its maximum / begins to plateau” value is “around 125 nM” and the “lowest concentration able to effectively increase the proportion of multiciliated cells” value was determined as 31.25 nM.
Take `C[C@H](NC(=O)Cc1cc(F)cc(F)c1)C(=O)NC(C(=O)OC(C)(C)C)c1ccccc1` (stereo partly drawn) [DAPT]: the “number of multiciliated cells, apical only treatment of submerged cultures” value was “approximately double the number of multiciliated cells”; the “multiciliated cell numbers, treatment during differentiation” value is recorded as “increased MCC cell numbers; also recorded: increased multiciliated cell numbers”; the “multiciliated cell formation in mature cultures” value was “induces the formation of additional multiciliated cells in mature cultures”; the “multiciliated cell formation, treatment during proliferation only” value is reported as “had no effect on differentiation; also recorded: no detrimental effect on multiciliated cells or overall epithelial structure”. Also, for the setting “listed as DAFT”, the “multiciliated cell formation by apical versus basal application” value was “induces ciliated cell formation via both apical and basal application; also recorded: induces multiciliated cell formation via both apical and basal application”; the “multiciliated cell numbers, treatment during differentiation” value is reported as “significant increase in the proportion of multiciliated cells”; the “multiciliated cell formation in mature cultures” value is reported as “induces the formation of additional multiciliated cells in mature cultures; also recorded: robust induction of multiciliated cell formation”; the “multiciliated cell formation, treatment during proliferation only” value is listed as “not sufficient to induce extra multiciliated cell formation”. Also, the “ratio MCC number/total luminal cells” value (I μM DAPT) is on record as “significant increases”.
